Assay results reported in PubChem BioAssay (NCI).
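Each compound was tested at five concentrations against cells in 96-well plates for 48 hours. The concentration for full growth arrest is given as TGI.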

Legend:
Experiment in all cases: NCI anticancer screen, dose series, 48 h
RPMI-8226 leukemia = system: RPMI-8226 leukemia
CAKI-1 renal = system: CAKI-1 renal
U251 CNS = system: U251 CNS
HS 578T breast = system: HS 578T breast
DMS 273 small cell lung = system: DMS 273 small cell lung
NCI-H460 lung = system: NCI-H460 lung
SN12C renal = system: SN12C renal
HT29 colon = system: HT29 colon
OVCAR-8 ovarian = system: OVCAR-8 ovarian
IGROV1 ovarian = system: IGROV1 ovarian
A549 NSCLC = system: A549 NSCLC
SK-MEL-2 melanoma = system: SK-MEL-2 melanoma
DU-145 prostate = system: DU-145 prostate
T-47D breast = system: T-47D breast
SK-MEL-5 melanoma = system: SK-MEL-5 melanoma
HOP-92 NSCLC = system: HOP-92 NSCLC
MALME-3M melanoma = system: MALME-3M melanoma
PC-3 prostate = system: PC-3 prostate
HCT-116 colon = system: HCT-116 colon
KM20L2 colon = system: KM20L2 colon
SNB-78 CNS = system: SNB-78 CNS
A498 renal = system: A498 renal
KM12 colon = system: KM12 colon
786-0 renal = system: 786-0 renal
OVCAR-4 ovarian = system: OVCAR-4 ovarian
M19-MEL melanoma = system: M19-MEL melanoma
DLD-1 colon = system: DLD-1 colon
NCI-H23 lung = system: NCI-H23 lung
LXFL 529 NSCLC = system: LXFL 529 NSCLC
HCC-2998 colon = system: HCC-2998 colon
SW-620 colon = system: SW-620 colon
SF-268 CNS = system: SF-268 CNS
NCI-H226 lung = system: NCI-H226 lung
LOX IMVI melanoma = system: LOX IMVI melanoma
MDA-MB-231 breast = system: MDA-MB-231 breast
HCT-15 colon = system: HCT-15 colon
BT-549 breast = system: BT-549 breast
MDA-MB-435 = system: MDA-MB-435
TK-10 renal = system: TK-10 renal
DMS 114 small cell lung = system: DMS 114 small cell lung
SK-OV-3 ovarian = system: SK-OV-3 ovarian
M14 melanoma = system: M14 melanoma
RXF 393 renal = system: RXF 393 renal
HOP-62 NSCLC = system: HOP-62 NSCLC
COLO 205 colon = system: COLO 205 colon
UACC-62 melanoma = system: UACC-62 melanoma
MDA-N = system: MDA-N
NCI-H522 lung = system: NCI-H522 lung
EKVX NSCLC = system: EKVX NSCLC
SNB-19 CNS = system: SNB-19 CNS
NCI/ADR-RES ovarian = system: NCI/ADR-RES ovarian
XF 498 CNS = system: XF 498 CNS
OVCAR-5 ovarian = system: OVCAR-5 ovarian
OVCAR-3 ovarian = system: OVCAR-3 ovarian
UACC-257 melanoma = system: UACC-257 melanoma
SNB-75 CNS = system: SNB-75 CNS
UO-31 renal = system: UO-31 renal
SF-539 CNS = system: SF-539 CNS
MOLT-4 leukemia = system: MOLT-4 leukemia
SF-295 CNS = system: SF-295 CNS
ACHN renal = system: ACHN renal
HOP-18 NSCLC = system: HOP-18 NSCLC
MCF7 breast = system: MCF7 breast
K-562 leukemia = system: K-562 leukemia
SK-MEL-28 melanoma = system: SK-MEL-28 melanoma
CCRF-CEM leukemia = system: CCRF-CEM leukemia
SR leukemia = system: SR leukemia
HL-60(TB) leukemia = system: HL-60(TB) leukemia

Compound `C=C1C(=O)OC2/C=C(\CO)C3OC3C3OC3(C)CC(OC(=O)/C(=C/C)COC(C)=O)C12` (centres undefined) has a TGI (RPMI-8226 leukemia) of over 100 µM, a TGI (CAKI-1 renal) of 4.67 µM and a TGI (U251 CNS) of 16.8 µM. For the same compound, the TGI (HS 578T breast) was 20.4 µM, the TGI (DMS 273 small cell lung) was 10.5 µM and the TGI (NCI-H460 lung) was 28.4 µM. For the same compound, the TGI (SN12C renal) was 10.9 µM, the TGI (HT29 colon) was 15.3 µM and the TGI (OVCAR-8 ovarian) was 6.22 µM. It also gave a TGI (IGROV1 ovarian) of 29.5 µM, a TGI (A549 NSCLC) of 36.9 µM and a TGI (SK-MEL-2 melanoma) of 6.78 µM. The TGI (DU-145 prostate) was 32.3 µM, the TGI (T-47D breast) was 9.7 µM and the TGI (SK-MEL-5 melanoma) was 20.1 µM. It also gave a TGI (HOP-92 NSCLC) of 4.35 µM, a TGI (MALME-3M melanoma) of 3.09 µM and a TGI (PC-3 prostate) of 27 µM. The TGI (HCT-116 colon) was 2.96 µM, the TGI (KM20L2 colon) was 20.5 µM and the TGI (SNB-78 CNS) was 13.4 µM. It also gave a TGI (A498 renal) of 27.7 µM, a TGI (KM12 colon) of 19 µM and a TGI (786-0 renal) of 5.36 µM. It also gave a TGI (OVCAR-4 ovarian) of 24.1 µM, a TGI (M19-MEL melanoma) of 3.94 µM and a TGI (DLD-1 colon) of 2.53 µM. For the same compound, the TGI (NCI-H23 lung) was 21.7 µM, the TGI (LXFL 529 NSCLC) was 2.17 µM and the TGI (HCC-2998 colon) was 37.1 µM. It also gave a TGI (SW-620 colon) of 2.8 µM, a TGI (SF-268 CNS) of 27.1 µM and a TGI (NCI-H226 lung) of 40.8 µM. It also gave a TGI (LOX IMVI melanoma) of 3.24 µM, a TGI (MDA-MB-231 breast) of 19.5 µM and a TGI (HCT-15 colon) of 6.47 µM. For the same compound, the TGI (BT-549 breast) was 3.48 µM, the TGI (MDA-MB-435) was 7.88 µM and the TGI (TK-10 renal) was 11.1 µM. It also gave a TGI (DMS 114 small cell lung) of 13.2 µM, a TGI (SK-OV-3 ovarian) of 45.7 µM and a TGI (M14 melanoma) of 6.64 µM. It also gave a TGI (RXF 393 renal) of 3.96 µM, a TGI (HOP-62 NSCLC) of 40.4 µM and a TGI (COLO 205 colon) of 3.06 µM. The TGI (UACC-62 melanoma) was 6.2 µM, the TGI (MDA-N) was 13 µM and the TGI (NCI-H522 lung) was 1.2 µM. It also gave a TGI (EKVX NSCLC) of 9.58 µM, a TGI (SNB-19 CNS) of 28.6 µM and a TGI (NCI/ADR-RES ovarian) of 41.8 µM. For the same compound, the TGI (XF 498 CNS) was 4.54 µM, the TGI (OVCAR-5 ovarian) was 28.7 µM and the TGI (OVCAR-3 ovarian) was 11.4 µM. It also gave a TGI (UACC-257 melanoma) of 12.6 µM, a TGI (SNB-75 CNS) of 23 µM and a TGI (UO-31 renal) of 23.7 µM. The TGI (SF-539 CNS) was 7.38 µM, the TGI (MOLT-4 leukemia) was over 100 µM and the TGI (SF-295 CNS) was 46.7 µM. It also gave a TGI (ACHN renal) of 9.68 µM, a TGI (HOP-18 NSCLC) of 21.6 µM and a TGI (MCF7 breast) of 20.1 µM. The TGI (K-562 leukemia) was over 100 µM and the TGI (SK-MEL-28 melanoma) was 3.72 µM.
`CCSc1c2cc(OC)ccc2nc2ccc(OC)cc12` showed a TGI (RPMI-8226 leukemia) of 22.2 µM, a TGI (CAKI-1 renal) of 45.4 µM and a TGI (U251 CNS) of over 79.2 µM. It also gave a TGI (CCRF-CEM leukemia) of over 42.9 µM, a TGI (HS 578T breast) of over 100 µM and a TGI (NCI-H460 lung) of 60.4 µM. It also gave a TGI (SN12C renal) of 50.9 µM, a TGI (HT29 colon) of 98 µM and a TGI (OVCAR-8 ovarian) of over 59.2 µM. For the same compound, the TGI (IGROV1 ovarian) was over 55 µM, the TGI (A549 NSCLC) was over 100 µM and the TGI (SK-MEL-2 melanoma) was 48.7 µM. It also gave a TGI (DU-145 prostate) of over 72.5 µM, a TGI (T-47D breast) of over 69.7 µM and a TGI (SK-MEL-5 melanoma) of 30.3 µM. The TGI (HOP-92 NSCLC) was over 100 µM, the TGI (MALME-3M melanoma) was 28.7 µM and the TGI (PC-3 prostate) was over 56 µM. It also gave a TGI (HCT-116 colon) of over 47.8 µM, a TGI (A498 renal) of 30 µM and a TGI (KM12 colon) of over 55.6 µM. For the same compound, the TGI (786-0 renal) was over 61 µM, the TGI (OVCAR-4 ovarian) was over 75.8 µM and the TGI (NCI-H23 lung) was over 86.1 µM. The TGI (HCC-2998 colon) was 25.5 µM, the TGI (SW-620 colon) was over 100 µM and the TGI (SF-268 CNS) was over 58.6 µM. It also gave a TGI (NCI-H226 lung) of 40.1 µM, a TGI (LOX IMVI melanoma) of over 76.9 µM and a TGI (MDA-MB-231 breast) of 44.6 µM. For the same compound, the TGI (HCT-15 colon) was over 100 µM, the TGI (BT-549 breast) was over 100 µM and the TGI (MDA-MB-435) was over 57.7 µM. It also gave a TGI (TK-10 renal) of over 43.7 µM, a TGI (SK-OV-3 ovarian) of over 92.5 µM and a TGI (M14 melanoma) of 33.3 µM. It also gave a TGI (RXF 393 renal) of 63 µM, a TGI (HOP-62 NSCLC) of 53.9 µM and a TGI (COLO 205 colon) of over 45.3 µM. The TGI (UACC-62 melanoma) was 47.8 µM, the TGI (MDA-N) was 21.7 µM and the TGI (NCI-H522 lung) was over 48.2 µM. It also gave a TGI (EKVX NSCLC) of over 54 µM, a TGI (SNB-19 CNS) of over 100 µM and a TGI (NCI/ADR-RES ovarian) of over 69.7 µM. It also gave a TGI (SR leukemia) of over 23.5 µM, a TGI (OVCAR-5 ovarian) of 78.4 µM and a TGI (OVCAR-3 ovarian) of over 61.2 µM. For the same compound, the TGI (UACC-257 melanoma) was 30.4 µM, the TGI (SNB-75 CNS) was 40.3 µM and the TGI (UO-31 renal) was over 60.7 µM. For the same compound, the TGI (SF-539 CNS) was over 100 µM, the TGI (MOLT-4 leukemia) was over 34.5 µM and the TGI (SF-295 CNS) was 60.4 µM. For the same compound, the TGI (HL-60(TB) leukemia) was over 100 µM, the TGI (ACHN renal) was over 87.4 µM and the TGI (MCF7 breast) was over 100 µM. The TGI (K-562 leukemia) was over 44.1 µM and the TGI (SK-MEL-28 melanoma) was over 59.2 µM.
